No end group written: not given here. *: point of attachment. Octanoyl = CCCCCCCC(=O)*
Legend:
[1] = in vivo; cited from earlier work
[2] = in vivo; cited from earlier work; remark: listed apart in the source
[3] = test system: persistently symptomatic concussion patients; test: Phase 2 study interim analysis, efficacy endpoints overall; type: in vivo, human
Experimental: (§1) A Phase 2 study of treatment of persistently symptomatic concussion patients with ghrelin (OXE-103) was undertaken at the University of Kansas Medical Center generally as described in Example 1. The interim results are reported herein (FIG. 1).
(§2) A study to treat patients with sub-acute concussion using a pharmaceutical formulation of ghrelin (OXE-103) was performed. The completed results from treatment group of 10 patients were compared to a 3 patient placebo group receiving standard of care (SoC). Additionally, two other patients are currently undergoing the treatment arm of the study at the time of the interim report. The study was performed in a randomized, double blind fashion and compared using self-report symptom scoring, quality of life questionnaires, computerized cognitive testing assessing executive function, memory and processing speed, and accelerometer-based balance scoring.
Efficacy endpoints for the interim study were: PCSS—22 symptom concussion scoring scale, QOLIBRI—WHO TBI specific Quality of Life after Brain Injury, and BRAIN CHECK—digital assessment of cognition, balance, visual changes (510K FDA approved).
Feedback from clinicians indicated a 20% decrease in concussion symptoms would be considered clinically significant improvement. Graphs of QOLIBRI (FIG. 3A), PCSS—total severity score (FIG. 4A), PGAS (FIG. 5A), 4MB3S (FIG. 6A), and PCSS number of symptoms (FIG. 7A) show a black line for 20% change from baseline. The graphs in FIGS. 3A, 4A, 5A, 6A, and 7A show average scores per time point for each endpoint at days 1, 4, 8, 11, 15, 21 and 44 for both the treatment and control (SoC) arms. For PCSS, number of symptoms, PGAS, and 4MBS, a patient is considered to have responded to treatment if percent change is less than or equal to −20% compared to baseline. For QOLIBRI, a patient is considered to have responded to treatment if percent change is greater than or equal to 20% compared to baseline.

[4] = test system: persistently symptomatic concussion patients; test: Phase 2 study of OXE-103 in persistently symptomatic concussion: QOLIBRI quality of life; type: in vivo, human; details: Treated, 13 subjects
Experimental: Describe the change in quality of life between the two groups. This aim defines one of the secondary objectives. To assess this, the Quality of Life after Brain Injury scale (QOLIBRI) and a Patient Global Assessment of Status (PGAS) are administered. […] The primary objective with this aim assesses the change between days 1 and 14.
Described herein is a randomized, double-blind, placebo-controlled design where 40 subjects will be randomized to either a placebo cohort or a treatment with OXE-103 cohort. We randomize using the RedCap database. The database is set up to share randomization allocation only with the investigational pharmacy. All subjects are consented and begin the screening period within 28 days post-injury. There is a 7-day screening period prior to randomization and commencement of study treatment to allow for assessment of stability of symptom burden. This screening period must start no later than 28 days post-injury. Starting with Day 1 (end of screening period), the treatment cohort receives OXE-103 40ug/kg SC twice daily by self-injection and the placebo group receives a placebo injection SC twice daily. Study drug and placebo are maintained and dispensed by Investigational Pharmacy. Subjects receive an 8-day supply of syringes pre-loaded with OXE-103 or placebo. Each cohort receives the 2nd set of syringes with OXE-103 or placebo at the day 7 visit. No therapies other than OXE-103 are administered during the 14-day treatment period to either cohort. After completion of 14 days of either placebo or OXE-103 treatment, starting with the Day 14 visit, other medications and therapies can be initiated for either cohort as needed.
Quality of Life (AIM 2): A secondary goal is to examine change in quality of life with treatment of sub-acute concussion. Without bewing bound by theory, it is hypothesized that OXE-103 will reduce symptoms when comparing days 1 and 15 and therefore improve quality of life as assessed by 1) Quality of Life after Brain Injury scale (QOLIBRI) and 2) a PGAS.
The QOLIBRI is a 37 item instrument specifically developed to assess health-related quality of life (HRQoL) of individuals after traumatic brain injury. This is built into a RedCap Survey that will be completed online. Since it was developed for TBI as a disease or condition-specific HRQoL instrument, it is expected to be more sensitive than generic quality of life tools. The QOLIBRI was developed by an international task force in two multi-language studies involving over 2000 persons after TBI. Use of a TBI-specific assessment of HRQoL can detect the effects of interventions by measuring physical, psychological, daily life and psychosocial changes typical of TBI. An increase/decrease of 20% in QOLIBRI is judged to represent an improvement.
The QOL measures are obtained on day 1, 4, 8, 11, 15, 21, & 44. The completion of these takes an estimated 15 minutes.
as §1, §2
Feedback from clinicians indicated a 20% decrease in concussion symptoms would be considered clinically significant improvement. […]

ghrelin (GSS(Octanoyl)FLSPEHQRVQQRKESKKPPAKLQPR; UniProt Q9UBU3 24-51, looked up) [OXE-103, naturally occurring peptide comprising 28 amino acids that include an N-octanoyl group at the 3-position of serine]
serum half-life [1]: about 30 minutes | effects of long term use [2]: increased appetite, weight gain, and adiposity | safety in previous studies [2]: quite safe | durability of treatment effects ([3]; across study endpoints): at least 44 days | Responder Rate (RR) ([3]; both endpoints, by 40 days after start of treatment): 80% | onset of treatment effect ([3]; persistently effected population): 8 to 10 days | improvement ([3]; within 8-10 days of treatment, interim time point): greater than 20% | 20% Responders - QOLIBRI: Number of Responders ([4]; Day 1): 0 | 20% Responders - QOLIBRI: Responder % ([4]; Day 1): 0% | 30% Responders - QOLIBRI: Number of Responders ([4]; Day 1): 0 | 30% Responders - QOLIBRI: Responder % ([4]; Day 1): 0% | 20% Responders - QOLIBRI: Number of Responders ([4]; Day 4): 4 | 20% Responders - QOLIBRI: Responder % ([4]; Day 4): 31% | 30% Responders - QOLIBRI: Number of Responders ([4]; Day 4): 3 | 30% Responders - QOLIBRI: Responder % ([4]; Day 4): 23% | 20% Responders - QOLIBRI: Number of Responders ([4]; Day 8): 4 | 20% Responders - QOLIBRI: Responder % ([4]; Day 8): 31% | 30% Responders - QOLIBRI: Number of Responders ([4]; Day 8): 4 | 30% Responders - QOLIBRI: Responder % ([4]; Day 8): 31% | 20% Responders - QOLIBRI: Number of Responders ([4]; Day 11): 7 | 20% Responders - QOLIBRI: Responder % ([4]; Day 11): 54% | 30% Responders - QOLIBRI: Number of Responders ([4]; Day 11): 5 | 30% Responders - QOLIBRI: Responder % ([4]; Day 11): 38% | 20% Responders - QOLIBRI: Number of Responders ([4]; Day 15): 7 | 20% Responders - QOLIBRI: Responder % ([4]; Day 15): 54% | 30% Responders - QOLIBRI: Number of Responders ([4]; Day 15): 5 | 30% Responders - QOLIBRI: Responder % ([4]; Day 15): 38% | 20% Responders - QOLIBRI: Number of Responders ([4]; Day 21): 9 | 20% Responders - QOLIBRI: Responder % ([4]; Day 21): 69% | 30% Responders - QOLIBRI: Number of Responders ([4]; Day 21): 7 | 30% Responders - QOLIBRI: Responder % ([4]; Day 21): 54% | 20% Responders - QOLIBRI: Number of Responders ([4]; Day 44): 11 | 20% Responders - QOLIBRI: Responder % ([4]; Day 44): 85% | 30% Responders - QOLIBRI: Number of Responders ([4]; Day 44): 10 | 30% Responders - QOLIBRI: Responder % ([4]; Day 44): 77%
